From patent US20250375422A1, “METHOD FOR TREATING CANCERS” (Acura Nanomedicine Corporation, priority 2019, published 2025)

Tested on: BxPC-3 cells
Assay: MTT assay, cell viability of pancreatic cancer BxPC-3 cells
Assay type: cell-based, human
Description: Cell lines used in the present disclosure include human pancreatic cancer cell lines BxPC-3, Mia-Paca-2/R (gemcitabine resistant cell line), and Panc-1/R (gemcitabine resistant cell line); human liver cancer cell lines SK-Hep-1 and Hep 3B; and human brain glioblastoma cell line GBM8401, which is a TMZ-resistant cell line. Cells were cultured in Dulbecco's modified Eagle media (DMEM) supplemented with 10% heat inactivated fetal bovine serum (FBS), 50 units/mL penicillin G, 50 μg/mL streptomycin (pH 7.4), and the cells were maintained in humidified environment comprising 5% CO2/95% air at 37° C.
The absorbance of the solution at 570 nm was measured by spectrophotometer.

Row | SMILES | cell viability of BxPC-3 cells (HCQ (20 or 50 μM) alone) | viability at 5 µM (Homo sapiens, BXPC-3, MBZ (5 μM)) [%]
1 | CCN(CCO)CCCC(C)Nc1ccnc2cc(Cl)ccc12 (centres unmarked) [HCQ, hydroxychloroquine] | slightly and/or unaffected | 
2 | COC(=O)Nc1nc2ccc(C(=O)c3ccccc3)cc2[nH]1 [MBZ, mebendazole] |  | ~60
